Values quoted from earlier work in patent US10984362B2, “Methods for post-harvest crop pest management” (priority 2017, dated 2021).
Like-named read-outs stand apart in the source and are kept apart here.

Tests used:
[1] = system: tobacco moth and susceptible cigarette beetle; details: 100% control of all development stages
[2] = system: resistant cigarette beetle; details: 100% control of all development stages
[3] = tobacco temperature 16-20 °C (61-68 °F), 300 ppm phosphine at the bale/case centre

In the case of `P` [Phosphine, phosphine], the “Minimum Exposure Time” value [1, 3] is given as 6 days, the “Minimum Exposure Time” value ([1]; tobacco temperature >20 °C (>68 °F), 200 ppm phosphine at the bale/case centre) is given as 4 days and the “Minimum Exposure Time” value [2, 3] is given as 12 days. For the same compound, the “Minimum Exposure Time” value ([2]; tobacco temperature 20-25 °C (68-77 °F), 300 ppm phosphine at the bale/case centre) was 12 days, the “Minimum Exposure Time” value ([2]; tobacco temperature 20-25 °C (68-77 °F), 700 ppm phosphine at the bale/case centre) was 10 days and the “Minimum Exposure Time” value ([2]; tobacco temperature >25 °C (>77 °F), 300 ppm phosphine at the bale/case centre) was 12 days. The “Minimum Exposure Time” value ([2]; tobacco temperature >25 °C (>77 °F), 600 ppm phosphine at the bale/case centre) was 6 days.
